Measurements: ChEMBL document CHEMBL1129841, “Peptide based inhibitors of interleukin-8: structural simplification and enhanced potency” (Bioorg Med Chem Lett, 1997)
*1 amine or outer side, *2 acyl side, *3 side chain or, on linkers, in order; H or OH if unused. Where a SMILES comes first, the peptide text is derived from it. [ ]: non-standard residue; d: D form. ξ: configuration not given here. 2(aminomethyl)benzoyl = O=C(c1ccccc1CN[*:1])[*:2]; X1 = C[C@@H](CCCC(=O)[*:2])N[*:1]; X2 = C[C@H](CCCN[*:1])C(=O)[*:2]; ξThr(3R) = C[C@@H](O)C(N)C(=O)O; 12Ado = NCCCCCCCCCCCC(=O)O; 3Amb = NCc1cccc(C(=O)O)c1; 4Amb = NCc1ccc(C(=O)O)cc1; Aun = NCCCCCCCCCCC(=O)O; Aoc = NCCCCCCCC(=O)O; Ahx = NCCCCCC(=O)O; ξP = O=C(O)C1CCCN1; Ava = NCCCCC(=O)O; GABA = NCCCC(=O)O

The compounds below were run against T1, Interleukin-8 (Homo sapiens, UniProt P10145) (assay: Inhibition of Interleukin-8 (IL-8)).
T1 sequence (P10145 whole entry): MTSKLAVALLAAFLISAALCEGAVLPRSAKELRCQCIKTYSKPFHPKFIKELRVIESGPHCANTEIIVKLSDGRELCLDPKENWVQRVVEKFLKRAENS

| Compound | Ki [µM] |
| --- | --- |
| Ac-MWDFDDGMPPADEDYSP-NH2 | 31 |
| CSCC[C@H](NC(C)=O)C(=O)N[C@@H](Cc1c[nH]c2ccccc12)C(=O)N[C@@H](CC(=O)O)C(=O)N[C@@H](Cc1ccccc1)C(=O)N[C@@H](CC(=O)O)C(=O)N[C@@H](CC(=O)O)C(=O)N[C@@H](CC(C)C)C(=O)N[C@@H](CC(N)=O)C(=O)N[C@@H](Cc1ccccc1)C(=O)NCc1ccccc1C(=O)N[C@@H](CCSC)C(=O)N1CCC[C@H]1C(=O)N1CCC[C@H]1C(=O)N[C@@H](C)C(=O)N[C@@H](CC(=O)O)C(=O)N[C@@H](CCC(=O)O)C(=O)N[C@@H](CC(=O)O)C(=O)N[C@@H](Cc1ccc(O)cc1)C(=O)N[C@@H](CO)C(=O)N1CCCC1C(N)=O (some centres undefined) (Ac-MWDFDDLNF[2(aminomethyl)benzoyl]MPPADEDYS[ξP]-NH2) | 9.3 |
| CSCC[C@H](NC(C)=O)C(=O)N[C@@H](Cc1c[nH]c2ccccc12)C(=O)N[C@@H](CC(=O)O)C(=O)N[C@@H](Cc1ccccc1)C(=O)N[C@@H](CC(=O)O)C(=O)N[C@@H](CC(=O)O)C(=O)N[C@@H](CC(C)C)C(=O)N[C@@H](CC(N)=O)C(=O)N[C@@H](Cc1ccccc1)C(=O)NC(C(=O)NCCCCC(=O)N1CCC[C@H]1C(=O)N1CCC[C@H]1C(=O)N[C@@H](C)C(=O)N[C@@H](CC(=O)O)C(=O)N[C@@H](CCC(=O)O)C(=O)N[C@@H](CC(=O)O)C(=O)N[C@@H](Cc1ccc(O)cc1)C(=O)N[C@@H](CO)C(=O)N1CCC[C@H]1C(N)=O)[C@@H](C)O (stereo partly drawn) (Ac-MWDFDDLNF[ξThr(3R)][Ava]PPADEDYSP-NH2) | 106 |
| CSCC[C@H](NC(C)=O)C(=O)N[C@@H](Cc1c[nH]c2ccccc12)C(=O)N[C@@H](CC(=O)O)C(=O)N[C@@H](Cc1ccccc1)C(=O)N[C@@H](CC(=O)O)C(=O)N[C@@H](CC(=O)O)C(=O)NCCCC(=O)N[C@@H](CCSC)C(=O)N1CCC[C@H]1C(=O)N1CCC[C@H]1C(=O)N[C@@H](C)C(=O)N[C@@H](CC(=O)O)C(=O)N[C@@H](CCC(=O)O)C(=O)N[C@@H](CC(=O)O)C(=O)N[C@@H](Cc1ccc(O)cc1)C(=O)N[C@@H](CO)C(=O)N1CCC[C@H]1C(N)=O (Ac-MWDFDD[GABA]MPPADEDYSP-NH2) | 14 |
| CSCC[C@H](NC(C)=O)C(=O)N[C@@H](Cc1c[nH]c2ccccc12)C(=O)N[C@@H](CC(=O)O)C(=O)N[C@@H](Cc1ccccc1)C(=O)N[C@@H](CC(=O)O)C(=O)N[C@@H](CC(=O)O)C(=O)NCCCCCCCC(=O)N[C@@H](CCSC)C(=O)N1CCC[C@H]1C(=O)N1CCC[C@H]1C(=O)N[C@@H](C)C(=O)N[C@@H](CC(=O)O)C(=O)N[C@@H](CCC(=O)O)C(=O)N[C@@H](CC(=O)O)C(=O)N[C@@H](Cc1ccc(O)cc1)C(=O)N[C@@H](CO)C(=O)N1CCC[C@H]1C(N)=O (Ac-MWDFDD[Aoc]MPPADEDYSP-NH2) | 12 |
| CSCC[C@H](NC(C)=O)C(=O)N[C@@H](Cc1c[nH]c2ccccc12)C(=O)N[C@@H](CC(=O)O)C(=O)N[C@@H](Cc1ccccc1)C(=O)N[C@@H](CC(=O)O)C(=O)N[C@@H](CC(=O)O)C(=O)NCCCCCC(=O)N[C@@H](CCSC)C(=O)N1CCC[C@H]1C(=O)N1CCC[C@H]1C(=O)N[C@@H](C)C(=O)N[C@@H](CC(=O)O)C(=O)N[C@@H](CCC(=O)O)C(=O)N[C@@H](CC(=O)O)C(=O)N[C@@H](Cc1ccc(O)cc1)C(=O)N[C@@H](CO)C(=O)N1CCC[C@H]1C(N)=O (Ac-MWDFDD[Ahx]MPPADEDYSP-NH2) | 7 |
| CSCC[C@H](NC(C)=O)C(=O)N[C@@H](Cc1c[nH]c2ccccc12)C(=O)N[C@@H](CC(=O)O)C(=O)N[C@@H](Cc1ccccc1)C(=O)N[C@@H](CC(=O)O)C(=O)N[C@@H](CC(=O)O)C(=O)N[C@@H](CC(C)C)C(=O)N[C@@H](CC(N)=O)C(=O)N[C@@H](Cc1ccccc1)C(=O)NCCCCC(=O)N[C@@H](CCSC)C(=O)N1CCC[C@H]1C(=O)N1CCC[C@H]1C(=O)N[C@@H](C)C(=O)N[C@@H](CC(=O)O)C(=O)N[C@@H](CCC(=O)O)C(=O)N[C@@H](CC(=O)O)C(=O)N[C@@H](Cc1ccc(O)cc1)C(=O)N[C@@H](CO)C(=O)N1CCC[C@H]1C(N)=O (Ac-MWDFDDLNF[Ava]MPPADEDYSP-NH2) | 13 |
| CSCC[C@H](NC(C)=O)C(=O)N[C@@H](Cc1c[nH]c2ccccc12)C(=O)N[C@@H](CC(=O)O)C(=O)N[C@@H](Cc1ccccc1)C(=O)N[C@@H](CC(=O)O)C(=O)N[C@@H](CC(=O)O)C(=O)N[C@@H](CC(C)C)C(=O)N[C@@H](CC(N)=O)C(=O)N[C@@H](Cc1ccccc1)C(=O)NCc1cccc(C(=O)N[C@@H](CCSC)C(=O)N2CCC[C@H]2C(=O)N2CCC[C@H]2C(=O)N[C@@H](C)C(=O)N[C@@H](CC(=O)O)C(=O)N[C@@H](CCC(=O)O)C(=O)N[C@@H](CC(=O)O)C(=O)N[C@@H](Cc2ccc(O)cc2)C(=O)N[C@@H](CO)C(=O)N2CCC[C@H]2C(N)=O)c1 (Ac-MWDFDDLNF[3Amb]MPPADEDYSP-NH2) | 4 |
| CSCC[C@H](NC(C)=O)C(=O)N[C@@H](Cc1c[nH]c2ccccc12)C(=O)N[C@@H](CC(=O)O)C(=O)N[C@@H](Cc1ccccc1)C(=O)N[C@@H](CC(=O)O)C(=O)N[C@@H](CC(=O)O)C(=O)N[C@@H](CC(C)C)C(=O)N[C@@H](CC(N)=O)C(=O)N[C@@H](Cc1ccccc1)C(=O)NC(C(=O)NCCC[C@@H](C)C(=O)N1CCC[C@H]1C(=O)N1CCC[C@H]1C(=O)N[C@@H](C)C(=O)N[C@@H](CC(=O)O)C(=O)N[C@@H](CCC(=O)O)C(=O)N[C@@H](CC(=O)O)C(=O)N[C@@H](Cc1ccc(O)cc1)C(=O)N[C@@H](CO)C(=O)N1CCC[C@H]1C(N)=O)[C@@H](C)O (stereo partly drawn) (Ac-MWDFDDLNF[ξThr(3R)][X2]PPADEDYSP-NH2) | 383 |
| CSCC[C@H](NC(C)=O)C(=O)N[C@@H](Cc1c[nH]c2ccccc12)C(=O)N[C@@H](CC(=O)O)C(=O)N[C@@H](Cc1ccccc1)C(=O)N[C@@H](CC(=O)O)C(=O)N[C@@H](CC(=O)O)C(=O)N[C@@H](CC(C)C)C(=O)N[C@@H](CC(N)=O)C(=O)N[C@@H](Cc1ccccc1)C(=O)N[C@@H](C)CCCC(=O)N[C@@H](CCSC)C(=O)N1CCC[C@H]1C(=O)N1CCC[C@H]1C(=O)N[C@@H](C)C(=O)N[C@@H](CC(=O)O)C(=O)N[C@@H](CCC(=O)O)C(=O)N[C@@H](CC(=O)O)C(=O)N[C@@H](Cc1ccc(O)cc1)C(=O)N[C@@H](CO)C(=O)N1CCC[C@H]1C(N)=O (Ac-MWDFDDLNF[X1]MPPADEDYSP-NH2) | 10 |
| CSCC[C@H](NC(C)=O)C(=O)N[C@@H](Cc1c[nH]c2ccccc12)C(=O)N[C@@H](CC(=O)O)C(=O)N[C@@H](Cc1ccccc1)C(=O)N[C@@H](CC(=O)O)C(=O)N[C@@H](CC(=O)O)C(=O)N[C@@H](CC(C)C)C(=O)N[C@@H](CC(N)=O)C(=O)N[C@@H](Cc1ccccc1)C(=O)NCc1ccc(C(=O)N[C@@H](CCSC)C(=O)N2CCC[C@H]2C(=O)N2CCC[C@H]2C(=O)N[C@@H](C)C(=O)N[C@@H](CC(=O)O)C(=O)N[C@@H](CCC(=O)O)C(=O)N[C@@H](CC(=O)O)C(=O)N[C@@H](Cc2ccc(O)cc2)C(=O)N[C@@H](CO)C(=O)N2CCC[C@H]2C(N)=O)cc1 (Ac-MWDFDDLNF[4Amb]MPPADEDYSP-NH2) | 2.3 |
| CSCC[C@H](NC(C)=O)C(=O)N[C@@H](Cc1c[nH]c2ccccc12)C(=O)N[C@@H](CC(=O)O)C(=O)N[C@@H](Cc1ccccc1)C(=O)N[C@@H](CC(=O)O)C(=O)N[C@@H](CC(=O)O)C(=O)NCCCCCCCCCCC(=O)N[C@@H](CCSC)C(=O)N1CCC[C@H]1C(=O)N1CCC[C@H]1C(=O)N[C@@H](C)C(=O)N[C@@H](CC(=O)O)C(=O)N[C@@H](CCC(=O)O)C(=O)N[C@@H](CC(=O)O)C(=O)N[C@@H](Cc1ccc(O)cc1)C(=O)N[C@@H](CO)C(=O)N1CCC[C@H]1C(N)=O (Ac-MWDFDD[Aun]MPPADEDYSP-NH2) | 6 |
| CSCC[C@H](NC(C)=O)C(=O)N[C@@H](Cc1c[nH]c2ccccc12)C(=O)N[C@@H](CC(=O)O)C(=O)N[C@@H](Cc1ccccc1)C(=O)N[C@@H](CC(=O)O)C(=O)N[C@@H](CC(=O)O)C(=O)NCCCCCCCCCCCC(=O)N[C@@H](CCSC)C(=O)N1CCC[C@H]1C(=O)N1CCC[C@H]1C(=O)N[C@@H](C)C(=O)N[C@@H](CC(=O)O)C(=O)N[C@@H](CCC(=O)O)C(=O)N[C@@H](CC(=O)O)C(=O)N[C@@H](Cc1ccc(O)cc1)C(=O)N[C@@H](CO)C(=O)N1CCC[C@H]1C(N)=O (Ac-MWDFDD[12Ado]MPPADEDYSP-NH2) | 4 |
| Ac-MWDFDDLNFTGMPPADEDYSP-NH2 | 13 |
